Measured values from US9718790B2, “Triazine derivative and pharmaceutical composition having an analgesic activity comprising the same” (SHIONOGI & CO., LTD., priority 2010, dated 2017).
pIC50: −log10 of the molar value.

What follows are molecules tested against human P2X3 receptor (Homo sapiens (Human), UniProt P56373) (assay: Evaluation of human P2X3 receptor inhibitory activity (Fluo-3 calcium fluorescence, FDSS 3000, ATP stimulation)). Details: C6BU-1 cells stably expressing human P2X3 receptor.
Chain of human P2X3 receptor (P56373 whole entry): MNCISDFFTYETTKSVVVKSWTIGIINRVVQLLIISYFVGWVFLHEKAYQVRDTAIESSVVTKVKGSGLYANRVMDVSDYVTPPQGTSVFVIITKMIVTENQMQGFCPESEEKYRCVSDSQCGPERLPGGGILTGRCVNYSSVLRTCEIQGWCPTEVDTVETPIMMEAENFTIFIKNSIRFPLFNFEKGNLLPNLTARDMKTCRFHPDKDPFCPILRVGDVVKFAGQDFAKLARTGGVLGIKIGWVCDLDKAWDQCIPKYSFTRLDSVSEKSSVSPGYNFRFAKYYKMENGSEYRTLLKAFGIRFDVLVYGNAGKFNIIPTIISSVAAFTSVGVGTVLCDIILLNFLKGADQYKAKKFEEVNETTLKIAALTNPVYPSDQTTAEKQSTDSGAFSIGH
Assay type: cell-based
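Also: stimulus was 50 nM ATP with fluorescence followed for 3 min, and the response per well was peak post-ATP fluorescence divided by the reading at measurement start.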

Going from CCCc1ccc(/N=c2\[nH]c(=O)n(C[C@H](C)C(=O)OC)c(=O)n2Cc2ccc(Cl)cc2)cc1C [Compound I-1211] to CC[C@H](C)Oc1ccc(/N=c2\[nH]c(=O)n(C[C@H](C)C(=O)OC)c(=O)n2Cc2ccc(Cl)cc2)cc1 [Compound I-0728], the pIC50 rises from 7.52 to 7.85 (0.33 log units). The second is the more potent here.

Cc1ccc(Cn2c(=O)n([C@@H](C)[C@@H](C)C(=O)O)c(=O)[nH]/c2=N\c2ccc3nc(C)ccc3c2)cc1 [Compound I-1352] and Cc1ccc(Cn2c(=O)n(CCCCC(=O)O)c(=O)[nH]/c2=N\c2ccc3nc(C)sc3c2)cc1 [Compound I-2158] are within 0.2 log units of each other in pIC50: 7.59 for the first, 7.54 for the second.

First: C[C@@H](Cn1c(=O)[nH]/c(=N\c2ccc3c(c2)CCC3)n(Cc2ccc(Cl)cc2)c1=O)C(=O)O [Compound I-0772]
Second: CC(C)OCc1ccc(/N=c2\[nH]c(=O)n(C[C@H](C)C(=O)O)c(=O)n2Cc2ccc(Cl)cc2)cc1 [Compound I-0669]
The pIC50 of the first is 0.39 log units lower: 6.32 for the first, 6.71 for the second.

Cc1cc(/N=c2\[nH]c(=O)n(CC3(C(=O)O)CC3)c(=O)n2Cc2ccc(Cl)cc2)ccc1OC(C)C [Compound I-0698] and Cc1cc(/N=c2\[nH]c(=O)n(CCCC(=O)NCCO)c(=O)n2Cc2ccc(Cl)cc2)ccc1OC(C)C [Compound I-0788] are within 0.2 log units of each other in pIC50: 7.59 for the first, 7.49 for the second.

CNC(=O)CCn1c(=O)[nH]/c(=N\c2ccc(OCC3CC3)cc2)n(Cc2ccc(Cl)cc2)c1=O [Compound I-1912] and COC(=O)Cn1c(=O)[nH]/c(=N\c2ccc(OC3CCC3)cc2)n(Cc2ccc(Cl)cc2)c1=O [Compound I-1939] are within 0.2 log units of each other in pIC50: 7.54 for the first, 7.52 for the second.

Going from Cc1[nH]c2ccc(/N=c3\[nH]c(=O)n(CCO)c(=O)n3Cc3ccc(Cl)cc3)cc2c1C [Compound I-2042] to Cc1oc2ccc(/N=c3\[nH]c(=O)n(CC(CO)CO)c(=O)n3Cc3ccc(Cl)cc3)cc2c1C [Compound I-2072], the pIC50 rises from 7.64 to 8.10 (0.46 log units).

Going from CCOC(=O)C1(COc2ccc(/N=c3\[nH]c(=O)n(CC)c(=O)n3Cc3ccc(Cl)cc3)cc2)CC1 [Compound I-2014] to C[C@@H](Oc1ccc(/N=c2\[nH]c(=O)n(CC(N)=O)c(=O)n2Cc2ccc(Cl)cc2)cc1)C(F)(F)F [Compound I-1959], the pIC50 rises from 6.44 to 7.19 (0.75 log units).

Going from CC(C)Oc1ccc(/N=c2\[nH]c(=O)n(C[C@@H]3CC(=O)N([C@H](C)c4ccccc4)C3)c(=O)n2Cc2ccc(Cl)cc2)cc1F [Compound I-0662] to CC(C)Oc1ccc(/N=c2\[nH]c(=O)n(C[C@H]3CC(=O)N([C@@H](C)c4ccccc4)C3)c(=O)n2Cc2ccc(Cl)cc2)cc1F [Compound I-0661], the pIC50 rises from 7.66 to 8.15 (0.49 log units). The second is the more potent here.

Going from CCn1c(=O)[nH]/c(=N\c2ccc(Oc3cccc(CO)c3)cc2)n(Cc2ccc(Cl)cc2)c1=O [Compound I-2065] to CCn1c(=O)[nH]/c(=N\c2ccc(Oc3ccc(C)c(C(=O)OC)c3)cc2)n(Cc2ccc(Cl)cc2)c1=O [Compound I-2015], the pIC50 rises from 7.27 to 7.49 (0.22 log units). The second is the more potent here.

Going from COC(=O)C(C)(C)Cn1c(=O)[nH]/c(=N\c2cccc(C(F)(F)F)c2)n(Cc2ccc(C)cc2)c1=O [Compound I-1258] to COC(=O)[C@@H](C)Cn1c(=O)[nH]/c(=N\c2ccc(OC(C)C)cc2)n(Cc2ccc(C)cc2)c1=O [Compound I-0606], the pIC50 falls from 8.10 to 7.68 (0.42 log units).

CCOC(=O)CCn1c(=O)[nH]/c(=N\c2ccc(OC(C)C)c(OC)c2)n(Cc2ccc(Cl)cc2)c1=O [Compound I-1248] and COc1cc(/N=c2\[nH]c(=O)n(C[C@H]3COC(C)(C)O3)c(=O)n2Cc2ccc(Cl)cc2)ccc1OC(C)C [Compound I-2001] are within 0.2 log units of each other in pIC50: 8.22 for the first, 8.30 for the second.

Going from COC(=O)[C@@H](C)Cn1c(=O)[nH]/c(=N\c2ccc(OC3COC3)cc2)n(Cc2ccc(C)cc2)c1=O [Compound I-1218] to CCCCOc1ccc(/N=c2\[nH]c(=O)n(C[C@H](C)C(=O)O)c(=O)n2Cc2ccc(C)cc2)cc1 [Compound I-0820], the pIC50 rises from 7.21 to 7.46 (0.25 log units).

First: CCn1c(=O)[nH]/c(=N\c2ccc(Oc3cncc(C(=O)O)c3)cc2)n(Cc2ccc(F)cc2)c1=O [Compound I-2112]
Second: CNC(=O)Cn1c(=O)[nH]/c(=N\c2ccc(Oc3ccnc(O)c3)cc2)n(Cc2ccc(Cl)cc2)c1=O [Compound I-1978]
The pIC50 of the first is 0.97 log units lower: 7.33 for the first, 8.30 for the second.

Compared with COC(=O)[C@@H](C)Cn1c(=O)[nH]/c(=N\c2ccc(NC(=O)C(C)C)c(Cl)c2)n(Cc2ccc(C)cc2)c1=O [Compound I-1419], C=Cc1cc(/N=c2\[nH]c(=O)n(C[C@H](C)C(=O)OC)c(=O)n2Cc2ccc(C)cc2)ccc1OCC [Compound I-1191] is 1.14 log units higher in pIC50: 6.52 for the first, 7.66 for the second.

Going from Cc1ccc(Cn2c(=O)n(CCC(=O)O)c(=O)[nH]/c2=N\c2cccc(Cl)c2F)cc1 [Compound I-2054] to CO/N=C(\Cn1c(=O)[nH]/c(=N\c2ccc(OC(C)C)c(F)c2)n(Cc2ccc(Cl)cc2)c1=O)C(=O)O [Compound I-0737, 1-(4-chlorobenzyl)-6-(3-fluoro-4-isopropoxyphenylimino)-3-(2-hydroxycarbonyl-2-methoxyiminoethyl)-1,3,5-triazinane-2,4-dion], the pIC50 rises from 6.21 to 6.85 (0.64 log units).

Going from COc1ccc(CN2C(=O)CC[C@@H]2Cn2c(=O)[nH]/c(=N\c3ccc(OC(C)C)c(F)c3)n(Cc3ccc(Cl)cc3)c2=O)cc1 [Compound I-0688] to O=c1ccccn1-c1ccc(/N=c2\[nH]c(=O)n(CCOC3CCCCO3)c(=O)n2Cc2ccc(Cl)cc2)cc1 (stereo not shown) [Compound I-2040], the pIC50 falls from 8.30 to 7.64 (0.66 log units).

O=C(Cn1c(=O)[nH]/c(=N\c2ccc(Oc3ccnc(O)c3)cc2)n(Cc2ccc(Cl)cc2)c1=O)NCCO [Compound I-1979] and O=c1[nH]/c(=N\c2ccc(Oc3ccnc(CO)c3)cc2)n(Cc2ccc(Cl)cc2)c(=O)n1CCCO [Compound I-1995] are within 0.2 log units of each other in pIC50: 8.40 for the first, 8.30 for the second.

Going from CC(C)Oc1ccc(/N=c2\[nH]c(=O)n(C[C@H](C)C(=O)O)c(=O)n2Cc2ccccc2)cc1Cl [Compound I-0794] to CC(C)Oc1ccc(/N=c2\[nH]c(=O)n(CCC(=O)Nc3ccc(OC(C)C)c(Cl)c3)c(=O)n2CC2CCC3(CC2)CC3)cc1Cl [Compound I-1450], the pIC50 falls from 6.77 to 6.35 (0.42 log units). The first is the more potent here.

Same assay, conditions: C6BU-1 cells stably expressing human P2X3 receptor, Fluo-3 fluorescence, FDSS 3000

First: COC(=O)[C@@H](C)Cn1c(=O)[nH]/c(=N\c2ccc(C=C(C)C)c(Cl)c2)n(Cc2ccc(Cl)cc2)c1=O [Compound I-0955]
Second: COC(=O)[C@@H](C)Cn1c(=O)[nH]/c(=N\c2cccc(CC(C)C)c2)n(Cc2ccc(C)cc2)c1=O [Compound I-1132]
The pIC50 of the first is 1.32 log units higher: 7.55 for the first, 6.23 for the second. The first is the more potent here.

First: CNC(=O)[C@@H](C)Cn1c(=O)[nH]/c(=N\c2ccc(Oc3ccc(O)nc3)cc2)n(Cc2ccc(C)cc2)c1=O [Compound I-1601]
Second: COC(=O)[C@@H](C)Cn1c(=O)[nH]/c(=N\c2ccc(Oc3ccccc3)cc2)n(Cc2ccc(C)cc2)c1=O [Compound I-0990]
The pIC50 of the first is 0.33 log units higher: 7.62 for the first, 7.29 for the second.

CCc1oc2ccc(/N=c3\[nH]c(=O)n(C[C@H](C)NC(C)=O)c(=O)n3Cc3ccc(Cl)cc3)cc2c1C [Compound I-1666] and Cc1nc2ccc(/N=c3\[nH]c(=O)n(CCC(N)=O)c(=O)n3Cc3ccc(Cl)cc3)cc2s1 [Compound I-1670] are within 0.2 log units of each other in pIC50: 8.00 for the first, 8.15 for the second.

Going from CCn1c(=O)[nH]/c(=N\c2ccc(Oc3cncc(C(=O)OC)c3)cc2)n(Cc2ccc(Cl)cc2)c1=O [Compound I-1863] to COc1ccc(Oc2ccc(/N=c3\[nH]c(=O)n(CC(=O)O)c(=O)n3Cc3ccc(Cl)cc3)cc2)cn1 [Compound I-1799], the pIC50 falls from 8.30 to 6.42 (1.88 log units). The first is the more potent here.

Compared with COC(=O)CCn1c(=O)[nH]/c(=N\C2CCC(C)CC2)n(Cc2ccc(C)cc2)c1=O (stereo not shown) [Compound I-1759], CCOC(=O)CCn1c(=O)[nH]/c(=N\c2ccc3nc(C(C)C)sc3c2)n(Cc2ccc(C)cc2)c1=O [Compound I-1562] is 1.83 log units higher in pIC50: 6.39 for the first, 8.22 for the second.

Going from Cc1cc(/N=c2\[nH]c(=O)n([C@@H](C)[C@H](C)C(=O)O)c(=O)n2Cc2ccc(Cl)cc2)ccc1OC(C)C [Compound I-1026] to CCc1nc2ccc(/N=c3\[nH]c(=O)n(CCCC(=O)O)c(=O)n3Cc3ccc(C)cc3)cc2s1 [Compound I-1631], the pIC50 rises from 6.74 to 8.10 (1.36 log units).

Compared with Cc1ccc(Cn2c(=O)n(C[C@H](C)C(=O)O)c(=O)[nH]/c2=N\c2ccc(C3=CCCC3)cc2)cc1 [Compound I-1114], Cc1ccc(Cn2c(=O)n(C[C@H](C)C(=O)O)c(=O)[nH]/c2=N\c2ccc(C3CCCC3)cc2)cc1 [Compound I-1113] is 0.24 log units higher in pIC50: 6.67 for the first, 6.91 for the second. The second is the more potent here.

First: CCOc1ccc(Cc2nc(=O)n(C[C@H](C)C(=O)OC)c(=O)n2Cc2ccc(Cl)cc2)cc1 [Compound I-1864]
Second: Cc1ccc(Cn2c(=O)n(CCC(=O)O)c(=O)[nH]/c2=N\c2ncc(-c3ccccc3)s2)cc1 [Compound I-1725]
The pIC50 of the first is 0.71 log units higher: 6.73 for the first, 6.02 for the second. The first is the more potent here.

Same assay, conditions: human P2X3 receptor, Test Example 1

O=c1[nH]c(=O)n(Cc2ccc(Cl)cc2)/c(=N/c2ccc(Oc3cccc(F)n3)cc2)[nH]1 [Compound I-2503] and O=C(O)CCn1c(=O)[nH]/c(=N\c2ccc(Oc3ccon3)cc2)n(Cc2ccc(Cl)cc2)c1=O [Compound I-2435] are within 0.2 log units of each other in pIC50: 7.41 for the first, 7.43 for the second.

First: CCn1c(=O)[nH]/c(=N\c2ccc(Oc3ccnc(C(=O)NC)c3)c(F)c2)n(Cc2ccc(Cl)cc2)c1=O [Compound I-2432]
Second: O=C(O)c1cc(Oc2ccc(/N=c3\[nH]c(=O)n(CC(F)F)c(=O)n3Cc3ccc(Cl)cc3)cc2)ccn1 [Compound I-2248]
The pIC50 of the first is 0.55 log units higher: 8.70 for the first, 8.15 for the second.

First: CCOC(=O)CCn1c(=O)[nH]/c(=N\c2ccc3oc(CC)c(C)c3c2)n(Cc2ccc(Cl)cc2)c1=O [Compound I-1503]
Second: CCOC(=O)CCn1c(=O)[nH]/c(=N\c2ccc3oc(CC)c(C)c3c2)n(Cc2ccc(C)cc2)c1=O [Compound I-1504]
The pIC50 of the first is 0.38 log units lower: 7.92 for the first, 8.30 for the second. The second is the more potent here.

First: O=C(O)CCn1c(=O)[nH]/c(=N\c2ccc(Oc3ccc(O)nc3)cc2)n(Cc2ccc(Cl)cc2)c1=O [Compound I-1535]
Second: COC(=O)[C@@H](C)Cn1c(=O)[nH]/c(=N\c2ccc(OCC3CC3)cc2)n(Cc2ccc(Cl)cc2)c1=O [Compound I-0833]
The pIC50 of the first is 0.27 log units lower: 7.55 for the first, 7.82 for the second. The second is the more potent here.

Compared with CCn1c(=O)[nH]/c(=N\c2ccc3nc(N(C)C)sc3c2)n(Cc2ccc(Cl)cc2)c1=O [Compound I-2267], CCc1cc2cc(/N=c3\[nH]c(=O)n(C[C@H]4COC(C)(C)O4)c(=O)n3Cc3ccc(Cl)cc3)ccc2o1 [Compound I-2314] is 1.67 log units higher in pIC50: 6.48 for the first, 8.15 for the second. The second is the more potent here.

Compared with CC(CO)(CO)Cn1c(=O)[nH]/c(=N\c2ccc(Oc3nccs3)cc2)n(Cc2ccc(F)cc2)c1=O [Compound I-2508], Cc1ccc(Cn2c(=O)n(C[C@H](C)C(=O)O)c(=O)[nH]/c2=N\c2ccc(CC(C)(C)O)c(Cl)c2)cc1 [Compound I-1532] is 0.29 log units lower in pIC50: 7.89 for the first, 7.60 for the second. The first is the more potent here.
